In patent US9103833B2, “Use of the GTPase Rab27B to diagnose and treat poor prognosis estrogen-receptor-positive breast cancer” (Universiteit Gent, priority 2009, dated 2015):

Legend:
[1] = tested on: cyclin A in MCF-7 GFP cells; experiment: cyclin A expression with recombinant HSP90α, Western blot; type: cell-based, human; settings: 10 μg/mL
Protocol: For Western blot analysis MCF-7 cells (1-10×10^6) were harvested in Laemmli lysis buffer (0.125 M Tris-HCl [pH=6.8], 10% glycerol, 2.3% SDS). Cell lysates (25 μg) and CM (20 μL) were suspended in 10 μL reducing sample buffer (1M Tris-HCl [pH=6.8], 30% glycerol, 6% SDS, 3% β-mercaptoethanol, 0.005% bromophenol blue) and boiled for 5 minutes at 95° C. Samples were run on NuPage 4-20% Bis-Tris gradient gels (Invitrogen), transferred to PVDF membranes, blocked in 5% non-fat milk in PBS with 0.5% Tween-20, and immunostained. Scanning densitometry was carried out with the Quantity One Program (Bio-Rad).

MCF-7 cells = experiment: type I collagen invasion assay with recombinant HSP90 proteins; type: cell-based, human; settings: 24 hours
Protocol: (§1) For the type I collagen invasion assay, the following precooled components were gently combined and defined as type I collagen solution: four volumes of type I collagen (stock is 3.49 mg/mL), five volumes of calcium- and magnesium-free Hank's balanced salt solution, one volume of MEM (10×), one volume of 0.25 M NaHCO3, 2.65 volumes of culture medium and 0.3 volumes of 1 M NaOH. For each test-condition, 1.25 mL of type I collagen solution was added to one well of 6-well plate, homogeneously spread and gelified on a flat surface in a humidified atmosphere of 10% CO2 in air at 37° C. for at least one hour. […]
(§2) Cell morphology was studied and invasion was scored after 24 hours (De Wever et al., (44)). […] It was calculated as (perimeter)^2÷(4π area), which describes the deviation of an object from a geometric circle. […] The number of invasive and non-invasive cells was counted in ten randomly selected microscopic fields with a 20× objective and 10× eye piece by two blinded observers using an inverted phase contrast microscope (DMI 3000B, Leica, Wetzlar, Germany). The invasion index was calculated as the ratio of the number of cells that invaded the gel divided by the total number of cells counted in each field. […]

MCF-7 GFP cells = experiment: cell proliferation assay with recombinant HSP90α; type: cell-based, human; settings: 10 μg/mL added to culture medium; P<0.001
Protocol: To examine whether Rab27B affects cell proliferation in a GTP-, geranylgeranyl-, and HSP90α-dependent manner, three sets of experiments were conducted: 1) proliferation rates of MCF-7 cells stably expressing GFP, GFP-Rab27B, GFP-Rab27B Q78L, GFP-Rab27B T23N, and GFP-Rab27B GER were compared; 2) proliferation rates of MCF-7 GFP-Rab27B cells transiently targeted with control or Rab27B siRNAs were studied; and 3) proliferation rates of MCF-7 GFP cells, treated with recombinant HSP90α, and MCF-7 GFP-Rab27B cells, challenged with control IgG or anti-HSP90α neutralizing antibody, were evaluated. To obtain a growth curve under each condition, triplicate wells of seeded cells were each counted five times. Two investigators independently counted the total number of cells in each well every 2 days for a total of 8 days with the use of a manual hemocytometer.

MCF-7 GFP-Rab27B cells = experiment: type I collagen invasion assay; type: cell-based; settings: Homo sapiens, MCF7, 24 hours, MCF-7 GFP-Rab27B cells on type I collagen, P<0.001
Protocol: as §1, §2

“recombinant HSP90α: HSP90α recombinant protein obtained from Stressgen” was tested, and the “cyclin A expression” value [1] was “increased cyclin A expression”, the “type I collagen invasion” value (MCF-7 cells; 1-10 μg/mL recombinant protein, P=0.04 at 5 μg/mL, P=0.003 at 10 μg/mL) was “dose-dependent increase” and the “proliferation of MCF-7 cells” value (MCF-7 GFP cells) was “increased proliferation”.

Work on `COC1=C2C[C@@H](C)C[C@H](OC)[C@H](O)[C@@H](C)/C=C(\C)[C@H](OC(N)=O)[C@@H](OC)/C=C\C=C(/C)C(=O)NC(=CC1=O)C2=O` [geldanamycin] yielded an inhibition at 1 µM (MCF-7 GFP-Rab27B cells) of 85 to 100%.

In the case of “recombinant HSP90β: HSP90β recombinant protein obtained from Stressgen”, the “type I collagen invasion” value (MCF-7 cells; 10 μg/mL recombinant protein) is reported as “no effect”.
